Measured values taken from patent US9347077B2, “Over-expression of a putative oxidoreductase (UcpA) for increasing furfural or 5-hydroxymethylfurfural tolerance” (UNIVERSITY OF FLORIDA RESEARCH FOUNDATION, INCORPORATED, priority 2011, dated 2016).

Tested on: oxidoreductase gene mRNA in LY180
Assay: Comparison of mRNA levels before and after furfural addition (expression array)
Assay type: cell-based, Escherichia coli
Conditions: 1.5 g/L furfural addition in LY180
Protocol: Analysis of mRNA as a measure of gene expression was performed as previously described (Miller et al., 2009a). Cultures were grown using 4 separate 500-ml fermentation vessels per strain. Initial samples (control) were removed for RNA extraction when the culture density reached approximately 0.66 g dry cell weight (dcw) liter^−1 (1.5 OD 550 nm). Furfural (15 mM) was then added and incubation continued. After 15 min incubation with furfural, cells were harvested for RNA extraction. RNA was submitted to NimbleGen for analysis of global expression. Expression data was further analyzed using ArrayStar and Excel.
UcpA was discovered accidentally as a beneficial gene for furfural tolerance during a search for E. coli NADH-utilizing oxidoreductase genes that could reduce furfural and confer resistance. […] We began by comparing expression levels of all E. coli genes in the absence of furfural and in the presence of 15 mM furfural (Table 1). […] These were further sorted to identify 5 candidate oxidoreductases that are known or putative users of NADH and have a 3-fold or higher expression level in the presence of 15 mM furfural. One of the genes was fucO, a gene previously discovered to reduce furfural using NADH and to increase furfural tolerance in E. coli. Four new candidates were identified. Two were operons encoding subunits (xdhABC and YeiTA) and two were monocistronic (ucpA and aldA). These 4 candidates are shown in bold type in Table 2.

With `O=Cc1ccco1` [furfural] the “Fold increase of mRNA, yagQ” value (b0283-b0286 yagQRST, 1st value) was 2.2 fold, the “Fold increase of mRNA, yagR” value (b0283-b0286 yagQRST, 2nd value) was 2.3 fold and the “Fold increase of mRNA, yagS” value (b0283-b0286 yagQRST, 3rd value) was 4.7 fold. For the same compound, the “Fold increase of mRNA, yagT” value (b0283-b0286 yagQRST, 4th value) was 3.5 fold, the “Fold increase of mRNA, ykgE” value (b0306) was 2.0 fold and the “Fold increase of mRNA, frmB” value (b0355-b0356 frmBA, 1st value) was 4.4 fold. The “Fold increase of mRNA, frmA” value (b0355-b0356 frmBA, 2nd value) was 5.7 fold, the “Fold increase of mRNA, yajO” value (b0419) was 2.6 fold and the “Fold increase of mRNA, ybdH” value (b0599) was 3.0 fold. For the same compound, the “Fold increase of mRNA, sdhA” value (b0723-b0724 sdhAB, 1st value) was 5.3 fold, the “Fold increase of mRNA, sdhB” value (b0723-b0724 sdhAB, 2nd value) was 5.8 fold and the “Fold increase of mRNA, ybiC” value (b0801) was 2.2 fold. For the same compound, the “Fold increase of mRNA, wrbA” value (b1004) was 3.0 fold, the “Fold increase of mRNA, yciW” value (b1287) was 2.4 fold and the “Fold increase of mRNA, ydbC” value (b1406) was 2.9 fold. For the same compound, the “Fold increase of mRNA, aldA” value (b1415) was 4.2 fold, the “Fold increase of mRNA, ydcW” value (b1444) was 2.5 fold and the “Fold increase of mRNA, yncB” value (b1449) was 2.6 fold. The “Fold increase of mRNA, nemA” value (b1650) was 6.4 fold, the “Fold increase of mRNA, yobF” value (b2137) was 8.5 fold and the “Fold increase of mRNA, yeiT” value (b2146-b2147 yeiTA, 1st value) was 3.1 fold. The “Fold increase of mRNA, yeiA” value (b2146-b2147 yeiTA, 2nd value) was 3.0 fold, the “Fold increase of mRNA, yeiQ” value (b2172) was 2.3 fold and the “Fold increase of mRNA, ucpA” value (b2426) was 4.5 fold. The “Fold increase of mRNA, yphC” value (b2545) was 2.3 fold, the “Fold increase of mRNA, fucO” value (b2799) was 4.4 fold and the “Fold increase of mRNA, xdhABC” value (b2868) was 5.8 fold. For the same compound, the “Fold increase of mRNA, ygfS” value (b2886) was 2.1 fold, the “Fold increase of mRNA, yqfA” value (b2899) was 2.2 fold and the “Fold increase of mRNA, yghZ” value (b3001) was 2.0 fold. The “Fold increase of mRNA, yqhD” value (b3011) was 4.6 fold, the “Fold increase of mRNA, dkgA” value (b3012) was 5.4 fold and the “Fold increase of mRNA, yiaK” value (b3572) was 2.4 fold. The “Fold increase of mRNA, aldB” value (b3588) was 5.7 fold.
